The source of these data is patent US20080182274A1, “MONITOR PROTEINS USABLE FOR ANALYZING EXPRESSION OF MEMBRANE PROTEINS” (National Institute of Advanced Industrial Science and …, priority 2007, published 2008).

This assay concerns monitor protein expressed on the cell membrane. As to the kind of experiment: Recovery of cell-membrane luminescence after Sulfo-NHS deactivation (intracellular transport of monitor protein). The class given is cell-based, Chinese hamster. The conditions noted are these: CHO-K1 cells expressing pCMV-DL-D3-CD8, 1 mM BFA, up to 6 hours after deactivation, FIG. 6. The protocol: The vector pCMV-DL-D3-CD8 prepared in Example 1 was introduced into an animal cell. Briefly, CHO-K1 cells were seeded on 6-well plates at 1=10^6 cells/well and cultured in D-MEM/Ham's F-12 medium (Wako Purechamical Industries) containing 10% FCS. After overnight culture at 37° C., 4 μg of pCMV-DL-D3-CD8 was added to each well and mixed with 250 μl of Opti-MEM serum-free medium (Gibco RRL) and reacted at room temperature for 5 min. Then, 10 μl of lipofectamine 2000 reacted in 250 μl of Opti-MEM serum-free medium at room temperature for 5 min was mixed with the cells to perform transfection in Opti-MEM serum-free medium. Then, the medium was exchanged for D-MEM/Ham's F-12 medium containing 10% FCS. […] Then, cells were counted, followed by preparation of a cell suspension with a cell density of 2×10^7 cells/ml.
By adding 0.5 mM Sulfo-NHS (Pierce) to the cell suspension, the monitor protein expressed on the cell membrane was inactivated. […] Cells were counted and arranged to give a density of 4×10^5 cells per 100 μl. […] To one aliquot, 2 μl of dinoflagellate-derived luciferin was added and the luminescence activity of the monitor protein expressed on the cell membrane was measured. Other aliquots were subjected to measurement of the amount of ATP-derived luminescence in order to examine whether the cell count is constant in individual samples taken at the above-indicated time points.

As to `C[C@H]1CCC/C=C/[C@@H]2C[C@H](O)C[C@H]2[C@H](O)/C=C/C(=O)O1` [BFA, Brefeldin A], the “luminescence derived from the membrane protein expressed on the cell membrane after deactivation treatment” value is recorded as “luminescence was not recognized”.
